From patent US8809001B2, “High throughput assays for inhibitors and activators of PAQR receptors” (University of Florida Research Foundation, Inc., priority 2007, dated 2014)
“And” between values parts separate entries of the source, which are not always exact repeats. Equal entries are not always repeated.

Legend:
[1] = biological target: T1, mPRα (Homo sapiens, UniProt Q86WK9); assay: cell-based
T1 construct: Full length and truncated mPRγ and mPRα were expressed in wild type cells grown in 2% galactose from the pGREG536 vector; expressed in transfected cells; host or cells: Saccharomyces cerevisiae (BY4742 wild type; also gpa mutants), GAL1-driven plasmids (TPI1 promoter in pJK90)
T1 sequence (Q86WK9 1-346): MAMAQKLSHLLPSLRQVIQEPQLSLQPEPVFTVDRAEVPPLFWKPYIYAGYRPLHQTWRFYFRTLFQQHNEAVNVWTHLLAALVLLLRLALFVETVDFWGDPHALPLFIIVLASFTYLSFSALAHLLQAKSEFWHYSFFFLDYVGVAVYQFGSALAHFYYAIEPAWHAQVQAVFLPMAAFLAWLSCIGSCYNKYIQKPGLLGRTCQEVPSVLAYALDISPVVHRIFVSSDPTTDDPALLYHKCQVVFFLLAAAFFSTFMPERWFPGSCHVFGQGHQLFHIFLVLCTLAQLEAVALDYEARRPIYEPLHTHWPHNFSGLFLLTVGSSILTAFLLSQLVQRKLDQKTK
From the text: Plasmids and primers. Human PAQRs were cloned into various vectors by PCR from commercially/publically available cDNAs. […] The OST4 open reading frame in pJK90 was replaced with the PAQR6 and mPRα open reading frames by gap repair. Primers for all cloning reactions are listed herein. Proteins expressed in pYES260 have an N-terminal 6×-histidine tag followed by a TEV protease cleavage site. Proteins expressed in pGREG536 have an N-terminal 7×-HA tag. Proteins expressed in the pRS316 vector are untagged. The pYES260, pRS316 and pGREG536 vectors allow for galactose-inducible expression via the GAL1 promoter. […] A pRS316-based plasmid containing the STE2 gene under the control of the GAL1 promoter (Feng et al., 2000) was kindly provided by Dr. Nicholas G. Davis (Wayne State University).
Assays and growth conditions. Strains were maintained using standard protocol and grown in synthetic defined (SD) media with the appropriate amino acids to match the auxotrophies of the individual strains. […] In brief, overnights of cells grown in SD-glucose media were re-inoculated into iron-deficient LIM to induce the expression of FET3. […] All ligands were added to the growth medium upon re-inoculation into LIM. For experiments in which steroids were added as ligands, steroids were added from ethanol stocks and “untreated” controls are actually treated with an equal volume of ethanol to control for vehicle effects. […] All experiments were performed at least three times and a representative experiment is shown. EC50 values were obtained using the web-based BioDataFit software using sigmoidal curve-fitting. (web site changbioscience.com/stat/ec50.html)

[2] = biological target: mPRs; conditions: determined by Thomas et al. (2008); read-out: Kd for progesterone binding to mPRs; cited from earlier work
[3] = biological target: T2, PAQR6 (Homo sapiens, UniProt Q6TCH4); assay: FET3-lacZ reporter repression in yeast expressing PAQR6; type: cell-based; conditions: PAQR6, Table 3
T2 construct: expressed in transfected cells; host or cells: Saccharomyces cerevisiae BY4742, GAL1-driven pYES260 plasmid
T2 sequence (Q6TCH4 1-344): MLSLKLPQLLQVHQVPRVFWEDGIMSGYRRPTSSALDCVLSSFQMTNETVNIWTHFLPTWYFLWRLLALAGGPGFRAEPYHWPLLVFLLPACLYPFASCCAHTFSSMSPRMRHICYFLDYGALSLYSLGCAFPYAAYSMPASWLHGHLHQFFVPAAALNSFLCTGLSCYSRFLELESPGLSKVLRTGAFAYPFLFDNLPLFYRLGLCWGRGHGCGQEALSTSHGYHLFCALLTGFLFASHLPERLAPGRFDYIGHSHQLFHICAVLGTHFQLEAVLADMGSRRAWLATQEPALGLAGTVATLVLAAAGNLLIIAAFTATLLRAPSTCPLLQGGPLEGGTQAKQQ
From the text: (§1) Plasmids and primers. Human PAQRs were cloned into various vectors by PCR from commercially/publically available cDNAs. PAQRs were cloned into the pYES260 (Melcher, 2000), pRS316 (Liu et al., 1992) or pGREG536 (Jansen et al., 2005) expression vectors using gap repair. The pJK90 plasmid containing a Dual Topology Reporter (DTR)-tagged OST4 gene driven by the constitutive TPI1 promoter was kindly provided by Dr. Gunnar von Heijne (Stockholm University) (Kim et al., 2003). The OST4 open reading frame in pJK90 was replaced with the PAQR6 and mPRα open reading frames by gap repair. Primers for all cloning reactions are listed herein. Proteins expressed in pYES260 have an N-terminal 6×-histidine tag followed by a TEV protease cleavage site. Proteins expressed in pGREG536 have an N-terminal 7×-HA tag. Proteins expressed in the pRS316 vector are untagged. The pYES260, pRS316 and pGREG536 vectors allow for galactose-inducible expression via the GAL1 promoter. […] The FET3-lacZ plasmid was previously described (Kupchak et al., 2007). […]
(§2) Assays and growth conditions. […] Cells were allowed to grow to mid-log phase at which time the activity of the FET3 gene was monitored using a FET3-lacZ promoter-reporter construct. lacZ activities are presented as a percentage of activity seen in untreated cells expressing the appropriate empty expression vector control. […]

[4] = system: receptors in Classes I and III; assay: FET3-lacZ response of the human PAQR panel to 10 μM progesterone: Classes I and III; type: cell-based
From the text: as §1, §2

SMILES: CC(=O)[C@H]1CC[C@H]2[C@@H]3CCC4=CC(=O)CC[C@]4(C)[C@H]3CC[C@]12C [Progesterone, progesterone]
- EC50 ([1]; EC50, mPRα column of Table 4, ligand alone): 2.2 nM
- EC50 ([1]; EC50, mPRα, Table 3, iron deficient LIM, 0.05% galactose): 2.3 nM and 1 to 3 nM
- Kd [2]: ~5 nM
- EC50 [3]: 2.6 nM
- agonist effect on receptors in Classes I and III [4]: ineffective
